Molecular target: insulin (Homo sapiens, UniProt P01308)
Assay: Dissociation of high order protein aggregates by circular dichroism
Format: physicochemical
Conditions: 0.18 mM insulin, 0.18-37 mM MP-DCK, CD 300 to 250 nm, room temperature (FIG. 5)
Procedure: A circular dichroism spectropolarimeter (Jasco J-715, Tokyo, Japan) was used to measure the effect of a delivery carrier on the aggregation state of insulin. Solutions containing 0.18 mM insulin and different concentration of MP-DCK (0.18-37 mM) were scanned from 300 to 250 nm at room temperature at a scanning speed of 50 nm/min using a cuvette with a pathlength of 0.1 cm. The results of the test are illustrated in FIG. 5.

Chain of insulin (P01308 25-54 limits assumed): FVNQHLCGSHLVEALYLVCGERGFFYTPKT
Chain of insulin (P01308 90-110 limits assumed): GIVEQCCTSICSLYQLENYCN

COC(=O)[C@H](CCCCN)NC(=O)CC[C@@H](C)[C@H]1CC[C@H]2[C@@H]3CC[C@@H]4C[C@H](O)CC[C@]4(C)[C@H]3C[C@H](O)[C@]12C [DCK, N^α-deoxychoyl-L-lysine-methylester]
aggregation state of insulin: decrease the aggregation state of the insulin

Reference: patent publication US7906137B2, “Delivery agents for enhancing mucosal absorption of therapeutic agents” (Mediplex Corporation, Korea, priority 2004, dated 2011)
